Measurements published in patent US20260193264A1, “BENZOYPARAZINE PYRAZINES AND THEIR USES” (FOGHORN THERAPEUTICS INC., priority 2022, published 2026).

Legend:
[1] = target: T1, HiBiT-BRM fusion protein in stable HeLa cell line (Homo sapiens, UniProt P51531); test: HiBiT-BRM cell-based degradation assay (Nano-Glo HiBiT Lytic Detection, 24 h); parameters: DC50: scale not given here; conditions: HeLa HiBiT-BRM cells; for DC50: read-out: BRM HiBit Degradation IC50; for BRM HiBit Degradation Maximum (%): top dose 30 μM
T1 construct: expressed in transfected cells
Summary of the method: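 Stable HiBiT-BRM HeLa cells were treated with 10-point 3-fold serial dilutions (30 μM final top dose, duplicate) for 24 h, then lysed with LgBiT-containing detection reagent and luminescence read. Degradation % was normalised to DMSO (high control) and 2 μM reference BRM/BRG1 degrader (low control).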

[2] = target: T2, HiBit-BRG1 fusion protein in stable HeLa cell line expressing HiBit-BRG1 and LgBit (Homo sapiens, UniProt P51532); test: HiBiT-BRG1 cell-based degradation assay (Nano-Glo HiBiT, 24 h); conditions: HeLa HiBit-BRG1/LgBit cells; for Dmax: top dose 30 μM, read-out: BRG1 HiBit Degradation Maximum (%); for DC50: read-out: BRMG1 HiBit Degradation IC50
T2 construct: expressed in transfected cells
Summary of the method: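 Stable HeLa line co-expressing HiBiT-BRG1 and LgBiT, compound-treated 24 h; luminescence read after Nano-Glo HiBiT lytic reagent. % degradation normalised between DMSO (high control) and 2 μM reference BRM/BRG1 degrader (low control).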

T2 sequence (P51532 whole entry, the tested form may be a part): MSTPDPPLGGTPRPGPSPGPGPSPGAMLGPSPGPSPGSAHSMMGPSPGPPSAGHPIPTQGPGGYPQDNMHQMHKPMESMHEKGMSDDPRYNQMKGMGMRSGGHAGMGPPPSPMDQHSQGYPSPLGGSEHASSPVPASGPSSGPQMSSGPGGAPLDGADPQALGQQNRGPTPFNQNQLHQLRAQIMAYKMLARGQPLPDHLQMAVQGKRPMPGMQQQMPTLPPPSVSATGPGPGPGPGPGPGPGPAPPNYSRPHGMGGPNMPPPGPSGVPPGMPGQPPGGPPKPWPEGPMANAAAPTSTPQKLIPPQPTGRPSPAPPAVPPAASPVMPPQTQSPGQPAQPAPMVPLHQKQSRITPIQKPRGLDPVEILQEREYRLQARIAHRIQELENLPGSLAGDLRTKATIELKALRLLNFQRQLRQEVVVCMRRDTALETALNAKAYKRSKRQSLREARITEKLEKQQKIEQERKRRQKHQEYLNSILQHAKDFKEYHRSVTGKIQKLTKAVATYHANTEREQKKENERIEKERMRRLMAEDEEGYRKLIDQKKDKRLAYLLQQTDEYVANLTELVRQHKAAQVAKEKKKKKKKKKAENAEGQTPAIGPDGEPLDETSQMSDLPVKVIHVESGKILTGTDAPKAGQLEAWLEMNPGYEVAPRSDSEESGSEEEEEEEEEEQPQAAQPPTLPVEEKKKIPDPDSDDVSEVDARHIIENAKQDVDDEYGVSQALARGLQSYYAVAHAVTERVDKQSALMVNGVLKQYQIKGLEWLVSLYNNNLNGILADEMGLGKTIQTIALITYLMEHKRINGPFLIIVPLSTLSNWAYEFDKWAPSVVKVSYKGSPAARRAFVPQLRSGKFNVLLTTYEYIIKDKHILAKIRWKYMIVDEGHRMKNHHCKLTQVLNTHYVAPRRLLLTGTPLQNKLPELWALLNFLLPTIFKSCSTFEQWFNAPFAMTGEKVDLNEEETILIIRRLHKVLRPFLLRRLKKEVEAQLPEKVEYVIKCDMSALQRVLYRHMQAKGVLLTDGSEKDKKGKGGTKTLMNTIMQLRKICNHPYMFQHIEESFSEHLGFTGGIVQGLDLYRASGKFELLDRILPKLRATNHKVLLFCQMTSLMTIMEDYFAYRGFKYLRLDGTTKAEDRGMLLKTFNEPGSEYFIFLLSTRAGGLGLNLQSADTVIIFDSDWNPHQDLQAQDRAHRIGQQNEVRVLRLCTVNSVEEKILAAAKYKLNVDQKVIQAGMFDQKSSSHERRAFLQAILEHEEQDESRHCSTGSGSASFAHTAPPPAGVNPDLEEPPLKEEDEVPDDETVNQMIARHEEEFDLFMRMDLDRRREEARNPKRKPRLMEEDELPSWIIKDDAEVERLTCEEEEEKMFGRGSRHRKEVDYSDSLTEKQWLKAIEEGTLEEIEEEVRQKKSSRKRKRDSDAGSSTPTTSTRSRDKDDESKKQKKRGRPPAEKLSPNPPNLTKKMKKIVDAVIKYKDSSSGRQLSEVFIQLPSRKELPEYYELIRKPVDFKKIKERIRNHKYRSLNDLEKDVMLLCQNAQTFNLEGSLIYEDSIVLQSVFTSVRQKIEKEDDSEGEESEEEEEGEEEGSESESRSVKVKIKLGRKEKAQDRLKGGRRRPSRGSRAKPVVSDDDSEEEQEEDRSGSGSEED
T1 sequence (P51531 whole entry, the tested form may be a part): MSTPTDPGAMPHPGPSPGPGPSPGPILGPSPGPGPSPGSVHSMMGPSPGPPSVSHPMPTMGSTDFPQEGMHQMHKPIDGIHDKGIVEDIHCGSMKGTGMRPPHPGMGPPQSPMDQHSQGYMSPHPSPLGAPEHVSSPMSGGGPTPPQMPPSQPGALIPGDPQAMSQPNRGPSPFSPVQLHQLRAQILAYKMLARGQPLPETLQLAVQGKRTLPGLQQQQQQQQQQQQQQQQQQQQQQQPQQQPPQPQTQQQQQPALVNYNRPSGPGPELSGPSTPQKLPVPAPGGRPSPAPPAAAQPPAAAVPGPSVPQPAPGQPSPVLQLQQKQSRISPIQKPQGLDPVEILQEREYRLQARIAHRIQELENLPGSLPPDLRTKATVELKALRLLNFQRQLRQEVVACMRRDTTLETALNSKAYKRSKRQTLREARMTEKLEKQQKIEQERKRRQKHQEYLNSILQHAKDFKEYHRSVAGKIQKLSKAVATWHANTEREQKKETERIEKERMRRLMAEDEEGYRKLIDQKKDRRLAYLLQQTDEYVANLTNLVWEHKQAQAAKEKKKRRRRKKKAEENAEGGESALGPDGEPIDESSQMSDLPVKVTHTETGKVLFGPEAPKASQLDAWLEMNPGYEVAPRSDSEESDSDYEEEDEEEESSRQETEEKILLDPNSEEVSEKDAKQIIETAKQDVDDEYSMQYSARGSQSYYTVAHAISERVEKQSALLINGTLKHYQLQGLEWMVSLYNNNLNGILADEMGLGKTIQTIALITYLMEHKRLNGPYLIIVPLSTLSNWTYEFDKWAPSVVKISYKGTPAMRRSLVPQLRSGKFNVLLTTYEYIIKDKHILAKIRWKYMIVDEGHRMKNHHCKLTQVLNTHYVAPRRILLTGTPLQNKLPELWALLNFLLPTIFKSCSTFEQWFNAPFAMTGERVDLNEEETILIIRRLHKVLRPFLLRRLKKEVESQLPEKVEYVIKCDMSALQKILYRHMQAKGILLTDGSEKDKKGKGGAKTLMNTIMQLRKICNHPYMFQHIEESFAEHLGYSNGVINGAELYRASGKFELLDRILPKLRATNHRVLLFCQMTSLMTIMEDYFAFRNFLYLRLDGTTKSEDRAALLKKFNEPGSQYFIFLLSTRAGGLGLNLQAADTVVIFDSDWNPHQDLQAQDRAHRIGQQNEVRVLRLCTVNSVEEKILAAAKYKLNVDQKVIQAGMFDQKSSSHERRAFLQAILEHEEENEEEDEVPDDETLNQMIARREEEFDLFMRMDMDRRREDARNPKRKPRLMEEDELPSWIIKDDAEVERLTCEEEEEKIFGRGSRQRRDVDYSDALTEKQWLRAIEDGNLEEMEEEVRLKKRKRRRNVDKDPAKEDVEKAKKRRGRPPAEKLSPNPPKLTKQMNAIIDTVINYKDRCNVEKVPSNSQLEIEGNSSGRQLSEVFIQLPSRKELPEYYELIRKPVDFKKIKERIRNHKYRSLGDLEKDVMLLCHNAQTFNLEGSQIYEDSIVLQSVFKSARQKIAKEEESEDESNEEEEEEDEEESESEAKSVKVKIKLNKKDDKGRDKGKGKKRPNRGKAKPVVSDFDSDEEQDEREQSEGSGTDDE

| SMILES | DC50 [1] | BRM HiBit Degradation Maximum (%) [1] | Dmax [2] | DC50 [2] |
| --- | --- | --- | --- | --- |
| Cc1ncsc1-c1ccc([C@H](C)NC(=O)[C@@H]2C[C@@H](O)CN2C(=O)C(c2cc(N3C[C@@H]4CN(c5ccc6cc(-c7ccccc7O)nnc6c5)C[C@H]4C3)no2)C(C)C)cc1 (stereo partly drawn) [Compound 226, (2S,4R)-4-hydroxy-1-(2-(3-((3aS,6aS)-5-(3-(2-hydroxyphenyl)cinnolin-7-yl)hexahydropyrrolo[3,4-c]pyrrol-2(1H)-yl)isoxazol-5-yl)-3-methylbutanoyl)-N-((S)-1-(4-(4-methylthiazol-5-yl)phenyl)ethyl)pyrrolidine-2-carboxamide] | > 10 nM | A (“A” indicates maximum degradation ≥75%) | < 50% |  |
| CC(C)[C@@H](C(=O)N1C[C@H](O)C[C@H]1C(=O)N[C@@H](C)c1ccc(F)cc1)c1cc(N2CC3(CC(c4cc5nnc(-c6ccccc6O)cc5cc4C#N)C3)C2)no1 [Compound 227, (2S,4R)-1-((R)-2-(3-(6-(6-cyano-3-(2-hydroxyphenyl)cinnolin-7-yl)-2-azaspiro[3.3]heptan-2-yl)isoxazol-5-yl)-3-methylbutanoyl)-N-((S)-1-(4-fluorophenyl)ethyl)-4-hydroxypyrrolidine-2-carboxamide] | > 100 nM | A (“A” indicates maximum degradation ≥75%) | > 50% | > 100 nM |
| Cc1ncsc1-c1ccc([C@H](C)NC(=O)[C@@H]2C[C@@H](O)CN2C(=O)[C@@H](c2cc(N3CC4=C(CN(c5ccc6cc(-c7ccccc7O)nnc6c5)C4)C3)no2)C(C)C)cc1 [Compound 228, (2S,4R)-4-hydroxy-1-((R)-2-(3-(5-(3-(2-hydroxyphenyl)cinnolin-7-yl)-3,4,5,6-tetrahydropyrrolo[3,4-c]pyrrol-2(1H)-yl)isoxazol-5-yl)-3-methylbutanoyl)-N-((S)-1-(4-(4-methylthiazol-5-yl)phenyl)ethyl)pyrrolidine-2-carboxamide] | < 10 nM | A (“A” indicates maximum degradation ≥75%) | > 75% | < 10 nM |
| Cc1ncsc1-c1ccc([C@H](C)NC(=O)[C@@H]2C[C@@H](O)CN2C(=O)[C@@H](c2cc(N3CC4=C(CN(c5ccc6nnc(-c7ccccc7O)cc6c5)C4)C3)no2)C(C)C)cc1 [Compound 229, (2S,4R)-4-hydroxy-1-((R)-2-(3-(5-(3-(2-hydroxyphenyl)cinnolin-6-yl)-3,4,5,6-tetrahydropyrrolo[3,4-c]pyrrol-2(1H)-yl)isoxazol-5-yl)-3-methylbutanoyl)-N-((S)-1-(4-(4-methylthiazol-5-yl)phenyl)ethyl)pyrrolidine-2-carboxamide] | < 10 nM | A (“A” indicates maximum degradation ≥75%) | > 75% | < 10 nM |
| Cc1ncsc1-c1ccc([C@H](C)NC(=O)[C@@H]2C[C@@H](O)CN2C(=O)[C@H](C(C)C)n2cc(C3CC4(CC(c5ccc6nnc(-c7ccccc7O)cc6c5)C4)C3)nn2)cc1 (stereo partly drawn) [Compound 230, (2S,4R)-4-hydroxy-1-((S)-2-(4-(6-(3-(2-hydroxyphenyl)cinnolin-6-yl)spiro[3.3]heptan-2-yl)-1H-1,2,3-triazol-1-yl)-3-methylbutanoyl)-N-((S)-1-(4-(4-methylthiazol-5-yl)phenyl)ethyl)pyrrolidine-2-carboxamide] | < 10 nM | A (“A” indicates maximum degradation ≥75%) | > 75% | > 10 nM |
| Cc1ncsc1-c1ccc([C@H](C)NC(=O)[C@@H]2C[C@@H](O)CN2C(=O)[C@@H](c2cc(-c3cnc(N4CC5(CN(c6ccc7cc(-c8ccccc8O)nnc7c6)C5)C4)nc3)no2)C(C)C)cc1 [Compound 231, (2S,4R)-4-hydroxy-1-((R)-2-(3-(2-(6-(3-(2-hydroxyphenyl)cinnolin-7-yl)-2,6-diazaspiro[3.3]heptan-2-yl)pyrimidin-5-yl)isoxazol-5-yl)-3-methylbutanoyl)-N-((S)-1-(4-(4-methylthiazol-5-yl)phenyl)ethyl)pyrrolidine-2-carboxamide] | < 10 nM | A (“A” indicates maximum degradation ≥75%) | > 75% | < 10 nM |
| Cc1ncsc1-c1ccc([C@H](C)NC(=O)[C@@H]2C[C@@H](O)CN2C(=O)[C@@H](c2cc(N3CC4(CN(Cc5ccc6cc(-c7ccccc7O)nnc6c5)C4)C3)no2)C(C)C)cc1 [Compound 232, (2S,4R)-4-hydroxy-1-((R)-2-(3-(6-((3-(2-hydroxyphenyl)cinnolin-7-yl)methyl)-2,6-diazaspiro[3.3]heptan-2-yl)isoxazol-5-yl)-3-methylbutanoyl)-N-((S)-1-(4-(4-methylthiazol-5-yl)phenyl)ethyl)pyrrolidine-2-carboxamide] | > 10 nM | A (“A” indicates maximum degradation ≥75%) | < 50% |  |
| Cc1ncsc1-c1ccc([C@H](C)NC(=O)[C@@H]2C[C@@H](O)CN2C(=O)C(C(C)C)n2cc(N3CCC4(CCN(c5ccc6cc(-c7ccccc7O)nnc6c5)CC4)C3)nn2)cc1 (stereo partly drawn) [Compound 233, (2S,4R)-4-hydroxy-1-(2-(4-(8-(3-(2-hydroxyphenyl)cinnolin-7-yl)-2,8-diazaspiro[4.5]decan-2-yl)-1H-1,2,3-triazol-1-yl)-3-methylbutanoyl)-N-((S)-1-(4-(4-methylthiazol-5-yl)phenyl)ethyl)pyrrolidine-2-carboxamide] | < 10 nM | A (“A” indicates maximum degradation ≥75%) | > 75% | < 10 nM |
| Cc1ncsc1-c1ccc([C@H](C)NC(=O)[C@@H]2C[C@@H](O)CN2C(=O)C(C(C)C)n2cc(N3CCC4(CC3)CCN4c3ccc4cc(-c5ccccc5O)nnc4c3)nn2)cc1 (stereo partly drawn) [Compound 234, (2S,4R)-4-hydroxy-1-(2-(4-(1-(3-(2-hydroxyphenyl)cinnolin-7-yl)-1,7-diazaspiro[3.5]nonan-7-yl)-1H-1,2,3-triazol-1-yl)-3-methylbutanoyl)-N-((S)-1-(4-(4-methylthiazol-5-yl)phenyl)ethyl)pyrrolidine-2-carboxamide] | < 10 nM | A (“A” indicates maximum degradation ≥75%) | > 50% | > 10 nM |
| Cc1ncsc1-c1ccc([C@H](C)NC(=O)[C@@H]2C[C@@H](O)CN2C(=O)C(C(C)C)n2cc(N3CCC(C4CN(c5ccc6cc(-c7ccccc7O)nnc6c5)C4)C3)nn2)cc1 (stereo partly drawn) [Compound 235, (2S,4R)-4-hydroxy-1-(2-(4-(3-(1-(3-(2-hydroxyphenyl)cinnolin-7-yl)azetidin-3-yl)pyrrolidin-1-yl)-1H-1,2,3-triazol-1-yl)-3-methylbutanoyl)-N-((S)-1-(4-(4-methylthiazol-5-yl)phenyl)ethyl)pyrrolidine-2-carboxamide] | < 10 nM | A (“A” indicates maximum degradation ≥75%) | > 75% | > 10 nM |
| CC(C)[C@@H](C(=O)N1C[C@H](O)C[C@H]1C(=O)N[C@@H](C)c1ccc(F)cc1)c1cc(N2CC3(C2)CN(c2cc4nnc(-c5ccccc5O)cc4cc2C(F)F)C3)no1 [Compound 236, (2S,4R)-1-((R)-2-(3-(6-(6-(difluoromethyl)-3-(2-hydroxyphenyl)cinnolin-7-yl)-2,6-diazaspiro[3.3]heptan-2-yl)isoxazol-5-yl)-3-methylbutanoyl)-N-((S)-1-(4-fluorophenyl)ethyl)-4-hydroxypyrrolidine-2-carboxamide] | > 10 nM | A (“A” indicates maximum degradation ≥75%) | < 50% |  |
